Patent US20260306525A1, “COMBINATION THERAPY GLUCOCORTICOIDS AND GINSENOSIDE” (FYTAGORAS B.V., priority 2023, published 2026)

How the values were obtained:
Type in all cases: cell-based, human
IL8 = test: qPCR IL8 expression in TNF-α-treated HeLa cells; settings: for IL8 expression (TNF-α induced): 0.01 μM beclomethasone, 20 μM Rg1 or combination; for IL8 expression, long-term: 30 h
Procedure: (§1) HeLa (human cervical cancer) cells were cultured in Dulbecco's Modified Eagle's (DMEM) High Glucose (HG) medium without phenol red supplemented with 10% Fetal Calf Serum (FCS) and 10% Glutamax (Sigma-Aldrich). The cells were maintained at 37° C. and 5% CO2. At 24 h before adding the treatment, the medium was replaced by DMEM HG with 10% charcoal-inactivated serum and 10% Glutamax (Sigma-Aldrich). The cells were exposed to short- and long-term compound treatments. […] Subsequently, TNF-α (10 ng/ml) was added along with the compound treatments for 6 h (this last step was not added in the actinomycin-D and cycloheximide experiments).
(§2) To determine levels of gene expression in zebrafish larvae, 3 dpf larvae were used in both wounded and non-wounded conditions, and after short- and long-term treatments. Groups of 15 larvae were collected in TRIzol reagent (ThermoFisher) and total RNA was isolated using miRNeasy mini kit (Qiagen, Hilden, Germany). For experiments in HeLa cells, cells were seeded in 6 well plates and after treatment, the cells were removed from the wells using TRIzol reagent and mRNA was isolated using miRNeasy mini kit (Qiagen) according to the manufacturer's instructions. The RNA samples were DNAse-treated utilizing the DNA-free™ DNA Removal Kit (ThermoFisher Scientific). The cDNA synthesis was performed using the iScript cDNA synthesis kit (Bio-Rad Laboratories, Hercules, CA, USA) using 1 μg of RNA per sample. For qPCR, 10 μM of forward primer and 10 μM of reverse primer, 12.5 μl of IQ SYBR Green Supermix (Bio-Rad Laboratories), and 2 μl of cDNA were added to the qPCR reaction mixture. […] The qPCR reactions were performed on a MyiQ-single-color real-time PCR detection system (Bio-Rad Laboratories), with initial denaturation for 3 min, 95° C., and 40 cycles of 15 s at 95.5° C., 15 s at 60° C., and 30 s at 72° C. Cycle threshold values (Ct values, i.e. the cycle numbers at which a threshold value of the fluorescence intensity was reached) were determined for each sample. The gene expression level for each sample was normalized using the expression of ppial (peptidylprolyl isomerase Ab (cyclophilin A)) for zebrafish samples, and 18S rRNA for human cells. The fold change per sample (compared to the respective control group) was calculated using the […]Ct method.

GR protein = test: western blot GR protein level in HeLa cells; settings: for GR protein level, short-term: 6 h; for GR protein level, short-term / GR protein level, long-term: beclomethasone 1 μM, Rg1 20 μM or combination; for GR protein level, long-term: 24 h; for GR protein level in presence of cycloheximide (protein stability): long-term, with cycloheximide (5 μg/ml)
Procedure: as §1
Western blots were conducted to determine GR protein levels in HeLa cells. The cells were seeded as described previously in 6-well plates. The cells were exposed to short- and long-term compound treatments. […] Cells were harvested using trypsin (0.25% (v/v) trypsin in PBS, no EDTA), washed twice with PBS, and centrifuged. After centrifuging for 3 min at 3,000 rpm, cell pellets were stored at −80° C. until use. Cells were homogenized in potassium phosphate (KPi lysis buffer; 25 mM K2HPO4—KH2PO4 (pH 6.5)+0.1% (v/v) Triton X-100 (Merck, Darmstadt, Germany)) by sonication (20% amplitude, 3 s on, 3 s off for 4 cycles), using a Vibra-Cell™ VCX 130 sonicator (Sonics, Newtown, CT, USA), while on ice. The total protein concentration of the homogenates was determined using the Quickstart Bradford protein assay (Bio-Rad Laboratories) and measured using an EMax® plus microplate reader (Molecular Devices, Sunnyvale, CA, USA). HeLa cell homogenates (30 μg protein in 10 μl) were added to 30 μl Laemmli sample buffer, vortexed, and, boiled for 5 min at 98° C. Of each sample, 15 μl was loaded in duplicate on a 12% gradient precast SDS-PAGE gel (Bio-Rad Laboratories), and run for approximately 2 h at 90 V (no duplicates were used in the cycloheximide experiment). The experiments were performed 4 times (6 times for the cycloheximide experiment). After running the gel, proteins were transferred to a nitrocellulose membrane (Thermo Fisher Scientific) by using Bio-Rad Power Pac Basic Mini Electrophoresis System at 100 V for 1 h. The blot was washed in a blocking buffer (Tris-buffered saline containing 0.1% Tween-20 (TBST) with 3% BSA) 3 times for 15 min at room temperature. A primary GR antibody (Glucocorticoid Receptor Recombinant Rabbit Monoclonal Antibody (2D8, ThermoFisher Scientific)) at a 1:500 dilution in TBST with 3% BSA was added to the blots and incubated overnight at 4° C. The next day, the blot was washed with TBST 3 times for 5 min. Then, an HRP-conjugated anti-rabbit secondary antibody (Sigma-Aldrich) at 1:2000 dilution in TBST with 3% BSA was added and incubated at room temperature for 2 h. The blot was washed 3 times for 5 min in TBST with 3% BSA and twice for 5 min with TBST. The blot was incubated with 10 ml of Pierce™ enhanced chemiluminescence (ECL) western blotting substrate (ThermoFisher Scientific) for 1-2 min. Chemiluminescence was detected using a ChemiDoc MP imager (Bio-Rad Laboratories) at an exposure time of 1 min. The blot was washed 3 times for 5 min in TBST, then washed for 1 h in TBST with 3% BSA. A β-actin antibody (MA1-91399, ThermoFisher Scientific) was added at a 1:2000 dilution in TBST with 3% BSA to the blot and incubated overnight at 4° C. The next day, the blot was washed 3 times for 5 min in TBST with 3% BSA. Then, an HRP-conjugated anti-mouse secondary antibody (Sigma-Aldrich) at a 1:2000 dilution in TBST with 3% BSA was added and incubated at room temperature for 2 h. Subsequently, the blot was washed 3 times for 5 min in TBST. The blot was incubated with 10 ml of ECL substrate for 1-2 min, and chemiluminescence was visualized. The intensities of the GR and β-actin bands were quantified using ImageJ software, and the GR level was normalized to the level of β-actin.

GILZ = test: qPCR GILZ expression in HeLa cells (GR transactivation); settings: beclomethasone 1 μM, Rg1 50 μM or combination
Procedure: as §1, §2

[1] = beclomethasone 1 μM, Rg1 20 μM or combination

Compound: CC(C)=CCC[C@](C)(O[C@@H]1O[C@H](CO)[C@@H](O)[C@H](O)[C@H]1O)[C@H]1CC[C@]2(C)[C@@H]1[C@H](O)C[C@@H]1[C@@]3(C)CC[C@H](O)C(C)(C)[C@@H]3[C@@H](O[C@@H]3O[C@H](CO)[C@@H](O)[C@H](O)[C@H]3O)C[C@]12C [Rg1, (3β,6α, 12β)-3,12-Dihydroxydammar-24-ene-6,20-diyl bis-β-D-glucopyranoside]
- IL8 expression (TNF-α induced) (IL8; 6 h): slightly suppressed
- IL8 expression, short-term (IL8; beclomethasone 1 μM, Rg1 20 μM or combination, 6 h): slightly suppressed
- IL8 expression, long-term (IL8; [1]): more strongly after long-term treatment
- GR protein level, short-term (GR protein): did not affect the GR mRNA or GR protein level
- GR protein level, long-term (GR protein): did not affect the GR mRNA or GR protein level
- GR protein level in presence of cycloheximide (protein stability) (GR protein): protein stability is affected in a similar way as the mRNA levels by beclomethasone, and not Rg1
- GILZ expression, long-term (GILZ): did not affect the expression of these genes
- GILZ expression, short-term (GILZ): did not affect the expression of these genes

Compound: C[C@H]1C[C@H]2[C@@H]3CCC4=CC(=O)C=C[C@]4(C)[C@@]3(Cl)[C@@H](O)C[C@]2(C)[C@@]1(O)C(=O)CO [beclomethasone, reference compound]
- IL8 expression (TNF-α induced) (IL8; 6 h): slightly suppressed
- IL8 expression, long-term (IL8; [1]): the suppressive effects of beclomethasone were significantly reduced after long-term treatment
- GR protein level, short-term (GR protein): inhibited the expression of GR at both the mRNA and protein level
- GR protein level, long-term (GR protein): this inhibitory effect increased over time
- GR protein level in presence of cycloheximide (protein stability) (GR protein): protein stability is affected in a similar way as the mRNA levels by beclomethasone, and not Rg1
- GILZ expression, long-term (GILZ): reduced over time
- GILZ expression, short-term (GILZ): strongly increased the expression of these genes after short-term treatment
